Test results as given in paper PMC10505147, “Ustilago maydis PR-1-like protein has evolved two distinct domains for dual virulence activities” (Nature Communications, 2023).

How the values were obtained:
[1] = target: T1, CatB3 (Cathepsin B-like 3) (Zea mays, UniProt A0A804QEY3); type: biochemical; details: 0.5 mM inhibitor, substrate UmPR-1La-HA culture supernatant, 50 mM sodium acetate, 10 mM DTT, pH 5.5, 28 °C
T1 construct: gene LOC100283781; untagged, expressed with signal peptide in Nicotiana benthamiana by agroinfiltration, purified from apoplastic fluid by size exclusion

UmPR-1La (PR-1La) = target: T2, UmPR-1La (PR-1La) (Mycosarcoma maydis, UniProt A0A0D1E5M0); assay: intrinsic tryptophan fluorescence; type: binding; details: 0.25 µM protein, 50 mM sodium acetate pH 5.5, room temperature, 15 min
T2 construct: gene UMAG_01204; His-tagged full-length protein without signal peptide (PR-1La 24-279), expressed in E. coli Shuffle T7, Ni-NTA and size exclusion
T2 sequence (A0A0D1E5M0 entry or part of it): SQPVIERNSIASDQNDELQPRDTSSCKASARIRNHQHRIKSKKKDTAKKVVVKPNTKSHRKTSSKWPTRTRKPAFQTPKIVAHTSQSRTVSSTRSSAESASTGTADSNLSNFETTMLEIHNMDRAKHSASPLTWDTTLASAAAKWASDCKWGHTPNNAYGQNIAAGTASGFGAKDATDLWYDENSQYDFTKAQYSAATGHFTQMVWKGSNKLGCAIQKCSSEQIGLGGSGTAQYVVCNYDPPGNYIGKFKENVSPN

T1 sequence (A0A804QEY3 entry or part of it): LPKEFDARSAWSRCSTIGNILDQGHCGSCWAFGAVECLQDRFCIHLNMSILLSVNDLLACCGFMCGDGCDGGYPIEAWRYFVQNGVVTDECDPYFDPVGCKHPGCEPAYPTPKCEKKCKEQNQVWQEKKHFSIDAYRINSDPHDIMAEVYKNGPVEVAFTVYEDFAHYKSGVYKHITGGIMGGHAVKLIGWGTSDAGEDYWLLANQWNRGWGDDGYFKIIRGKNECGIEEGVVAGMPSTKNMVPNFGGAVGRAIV

Question: `CC(C)C[C@H](NC(=O)[C@H]1O[C@@H]1C(=O)O)C(=O)NCCCCN=C(N)N` [E64] was tested. Which “inhibition of UmPR-1La cleavage (immunoblot)” value [1] did it give?
Answer: Its value is “The activity of CatB3 was blocked by E64 (Fig. 5b)”.

Question: `COc1cc(/C=C/CO)ccc1O` [coniferyl alcohol] was tested. Which intrinsic tryptophan fluorescence (UmPR-1La (PR-1La)) did it give?
Answer: Its intrinsic tryptophan fluorescence is “both versions of the PR-1La proteins responded to CA by causing a shift”.

Question: `COc1cc(/C=C/C(=O)O)ccc1O` [ferulic acid] was tested. Which intrinsic tryptophan fluorescence (UmPR-1La (PR-1La); 5 µM or varied ligand, caveolin-binding motif site) did it give?
Answer: The intrinsic tryptophan fluorescence was “the intrinsic fluorescence intensity of PR-1La decreased in an FA-concentration-dependent manner”.
